Results on 13 compounds are retold here after patent US9090671B2, “Macrocyclic peptides” (Scynexis, Inc., priority 2008, dated 2015).

pEC50: −log10 of the molar value.

Assay [1] concerns HCV RNA replicon ET (luc ubi neo/ET). The experiment in a line: HCV RNA replicon luciferase assay in human hepatoma cell line ET. The class given is cell-based. The note with it: Hepatitis C virus, 72 hours, read-out: EC50, effective concentration that reduced viral replication by 50% (HCV RNA replicon derived LUC activity). How it is done: Representative compounds of the present invention were tested for activity against HCV using the methods adapted from those described by Kriger et al., 2001, Journal of Virology 75:4614-4624, Pietschmann et al., 2002, Journal of Virology, 76:4008-4021, and using HCV RNA constructs as described in U.S. Pat. No. 6,630,343. Compounds were examined in the human hepatoma cell line ET (lub ubi neo/ET), a HCV RNA replicon containing a stable luciferase (LUC) reporter. The HCV RNA replicon ET contains the 5′ end of HCV (with the HCV Internal Ribosome Entry Site (IRES) and the first few amino acids of the HCV core protein) which drives the production of a firefly luciferase (LUC), ubiquitin, and neomycin phosphotransferase (NeoR) fusion protein. Ubiquitin cleavage releases the LUC and NeoR proteins. The EMCV IRES element controls the translation of the HCV […] NS3-NS5. The NS3 protein cleaves the HCV polyprotein to release the mature NS3, NS4A, NS4B, NS5A and NS5B proteins that are required for HCV replication. At the 3′ end of the replicon is the authentic 3′ NTR of HCV. The activity of the LUC reporter is directly proportional to HCV replication levels and positive-control antiviral compounds produce a reproducible antiviral response using the LUC endpoint.
The compounds were dissolved in DMSO at five half-log concentrations each, ranging from either 0.03 to 3 μM or 1 to 100 μM. Subconfluent cultures of the ET line were plated out into 96 well plates dedicated for the analysis of cell numbers (cytotoxicity) or antiviral activity and the next day the compounds were added to the appropriate wells. […] Compound EC50 and EC90 values were derived from HCV RNA levels assessed as HCV RNA replicon derived LUC activity. Cytotoxicity was expressed as IC50 and IC90, the concentration of compound that inhibited cell viability by 50% and 90%, respectively. Compound IC50 and IC90 values were calculated using a colorimetric assay as an indication of cell numbers and cytotoxicity. The activity of the LUC reporter is directly proportional to HCV RNA levels in the human cell line. The HCV-replicon assay was validated in parallel experiments using interferon-alpha-2b as a positive control. Cyclosporine was also tested by way of comparison.

In a further assay the target is cyclophilin D (Homo sapiens, UniProt P30405). The assay is described as follows: Cyclophilin binding competitive ELISA (cyclophilin D). To be noted: human recombinant cyclophilin, read-out: EC50, concentration required to achieve 50% inhibition, against cyclophilin D. How it is done:
(§1) The cyclophilin inhibition binding of compounds disclosed herein is determined using a competitive ELISA adapted from the methods described by Quesniaux et al. (Eur. J. Immunol., 1987, 17:1359-1365). Activated ester of succinyl spacers bound to D-Lys^8-cyclosporine A (D-Lys^8-Cs) are coupled to bovine serum albumin (BSA) through D-lysyl residue in position 8. BSA is dissolved in 0.1 M borate buffer, pH 9.0 (4 mg in 1.4 ml). A hundredfold molar excess of D-Lys^8-Cs dissolved in dimethyl formamide (0.6 ml) is added drop wise to the BSA under vigorous stirring.
(§2) Microtiter Plates are coated with D-Lys^8-Cs-BSA conjugate (2 μg/ml in PBS for 24 hours at 4° C.). Plates are washed with Tween®/PBS and with PBS alone. To block nonspecific binding, 2% BSA/PBS (pH 7.4) is added to the wells and allowed to incubate for 2 hours at 37° C. […] Cyclophilin is detected with anti-cyclophilin rabbit antiserum diluted in 1% BSA containing PBS and incubates overnight at 4° C. […] Bound rabbit antibodies are then detected by goat anti-rabbit IgG conjugated to alkaline phosphatase diluted in 1% BSA-PBS and allowed to incubate for 2 hours at 37° C. […] After incubation with 4-nitrophenyl phosphate (1 g/l in diethanolamine buffer, pH 9.8) for 1 to 2 hours at 37° C., the enzymatic reaction is measured spectrophotometrically at 405 nm using a spectrophotometer. […]

Another assay has as its target cyclophilin A (Homo sapiens, UniProt P62937). The assay is described as follows: Cyclophilin binding competitive ELISA (cyclophilin A). To be noted: human recombinant cyclophilin, read-out: EC50, concentration required to achieve 50% inhibition, against cyclophilin A. Here is the method:
as §1, §2
(In general: An ELISA detects its analyte on a solid surface through an enzyme-linked reagent.)

For the next assay, the target named is cyclophilin B (Homo sapiens, UniProt P23284). The experiment in a line: Cyclophilin binding competitive ELISA (cyclophilin B). The note with it: human recombinant cyclophilin, read-out: EC50, concentration required to achieve 50% inhibition, against cyclophilin B. Here is the method:
as §1, §2

cyclophilin D, sequence (P30405 30-207): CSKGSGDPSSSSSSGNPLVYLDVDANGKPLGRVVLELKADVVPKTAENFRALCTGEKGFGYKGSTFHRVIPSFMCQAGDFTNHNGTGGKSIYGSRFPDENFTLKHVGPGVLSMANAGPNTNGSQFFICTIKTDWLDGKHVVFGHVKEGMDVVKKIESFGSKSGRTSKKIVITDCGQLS
cyclophilin A, sequence (P62937 whole entry): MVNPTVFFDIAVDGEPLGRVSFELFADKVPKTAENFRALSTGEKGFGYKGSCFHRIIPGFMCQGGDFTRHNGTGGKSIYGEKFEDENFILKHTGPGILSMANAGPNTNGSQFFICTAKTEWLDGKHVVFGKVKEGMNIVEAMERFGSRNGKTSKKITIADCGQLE
cyclophilin B, sequence (P23284 34-216): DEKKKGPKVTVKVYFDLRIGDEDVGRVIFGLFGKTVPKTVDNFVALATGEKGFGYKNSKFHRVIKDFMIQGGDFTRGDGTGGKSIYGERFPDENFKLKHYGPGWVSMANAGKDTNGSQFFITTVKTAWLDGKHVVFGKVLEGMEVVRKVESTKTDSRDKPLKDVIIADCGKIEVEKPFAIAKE

With `CC=CCC(C)C(O)C1C(=O)NC(CC)C(=O)N(C)C(SCCN(C)C)C(=O)N(C)C(CC(C)C)C(=O)N(Cc2ccccc2)C(C(C)C)C(=O)N(C)C(CC(C)C)C(=O)NC(C)C(=O)NC(C)C(=O)N(C)C(CC(C)C)C(=O)N(C)C(CC(C)C)C(=O)N(C)C(C(C)C)C(=O)N1C` [Compound 1, [(R)-2-(N,N-Dimethylamino)ethylthio-Sar]^3-(N-benzyl)-Val^5-cyclosporine A], the pEC50 in assay [1] is above 6.00.

Consider `C/C=C/C[C@@H](C)[C@@H](O)[C@H]1C(=O)N[C@@H](CC)C(=O)N(C)C(SC)C(=O)N(C)[C@@H](CC(C)C)C(=O)N(Cc2ccccc2)[C@@H](C(C)C)C(=O)N(C)[C@@H](CC(C)C)C(=O)N[C@@H](C)C(=O)N[C@H](C)C(=O)N(C)[C@@H](CC(C)C)C(=O)N(C)[C@@H](CC(C)C)C(=O)N(C)[C@@H](C(C)C)C(=O)N1C` (some centres unmarked) [Compound 4, [Methylthio-Sar]^3-(N-benzyl)-Val^5-cyclosporine A], for which the pEC50 at cyclophilin D is below 6.22; in assay [1], above 6.00.

`CC=CCC(C)C(O)C1C(=O)NC(CC)C(=O)N(C)C(SCCC)C(=O)N(C)C(CC(C)C)C(=O)N(Cc2ccccc2)C(C(C)C)C(=O)N(C)C(CC(C)C)C(=O)NC(C)C(=O)NC(C)C(=O)N(C)C(CC(C)C)C(=O)N(C)C(CC(C)C)C(=O)N(C)C(C(C)C)C(=O)N1C` (centres unmarked) [Compound 5, [n-Propylthio-Sar]^3-(N-benzyl)-Val^5-cyclosporine A]: the pEC50 on cyclophilin A is below 6.22; on cyclophilin D, below 6.22; on cyclophilin B, below 6.22; in assay [1], below 6.00.

Regarding `CC=CCC(C)C(O)C1C(=O)NC(CC)C(=O)N(C)C(OC)C(=O)N(C)C(CC(C)C)C(=O)N(Cc2ccccc2)C(C(C)C)C(=O)N(C)C(CC(C)C)C(=O)NC(C)C(=O)NC(C)C(=O)N(C)C(CC(C)C)C(=O)N(C)C(CC(C)C)C(=O)N(C)C(C(C)C)C(=O)N1C` (centres unmarked) [Compound 6, [Methoxy-Sar]^3-(N-benzyl)-Val^5-cyclosporine A], the pEC50 in assay [1] is above 6.00.

Take `CC=CCC(C)C(O)C1C(=O)NC(CC)C(=O)N(C)C(OC)C(=O)N(C)C(CC(C)C)C(=O)N(Cc2cccc(C(F)(F)F)c2)C(C(C)C)C(=O)N(C)C(CC(C)C)C(=O)NC(C)C(=O)NC(C)C(=O)N(C)C(CC(C)C)C(=O)N(C)C(CC(C)C)C(=O)N(C)C(C(C)C)C(=O)N1C` (centres unmarked) [Compound 7, [Methoxy-Sar]^3-(3-trifluoromethylbenzyl)-Val^5-cyclosporine A]: the pEC50 in assay [1] was above 6.00.

On to `C=CCN1C(=O)C(CC(C)C)N(C)C(=O)C(OC)N(C)C(=O)C(CC)NC(=O)C(C(O)C(C)CC=CC)N(C)C(=O)C(C(C)C)N(C)C(=O)C(CC(C)C)N(C)C(=O)C(CC(C)C)N(C)C(=O)C(C)NC(=O)C(C)NC(=O)C(CC(C)C)N(C)C(=O)C1C(C)C` (centres unmarked) [Compound 8, [Methoxy-Sar]^3-(N-allyl)-Val^5-cyclosporine A], for which the pEC50 in assay [1] was above 6.00.

For the compound `CC=CCC(C)C(O)C1C(=O)NC(CC)C(=O)N(C)C(OC)C(=O)N(C)C(CC(C)C)C(=O)N(CC=CC)C(C(C)C)C(=O)N(C)C(CC(C)C)C(=O)NC(C)C(=O)NC(C)C(=O)N(C)C(CC(C)C)C(=O)N(C)C(CC(C)C)C(=O)N(C)C(C(C)C)C(=O)N1C` (centres unmarked) [Compound 9, [Methoxy-Sar]^3-(N-but-2-enyl)-Val^5-cyclosporine A], the pEC50 in assay [1] is above 6.00.

On to `CC=CCC(C)C(O)C1C(=O)NC(CC)C(=O)N(C)C(OC)C(=O)N(C)C(CC(C)C)C(=O)N(CC=C(C)C)C(C(C)C)C(=O)N(C)C(CC(C)C)C(=O)NC(C)C(=O)NC(C)C(=O)N(C)C(CC(C)C)C(=O)N(C)C(CC(C)C)C(=O)N(C)C(C(C)C)C(=O)N1C` (centres unmarked) [Compound 10, [Methoxy-Sar]^3-(N-3-methyl-but-2-enyl)-Val^5-cyclosporine A], for which the pEC50 in assay [1] is above 6.00.

As for `CC=CCC(C)C(O)C1C(=O)NC(CC)C(=O)N(C)C(OC)C(=O)N(C)C(CC(C)C)C(=O)N(CC=CCOCc2ccccc2)C(C(C)C)C(=O)N(C)C(CC(C)C)C(=O)NC(C)C(=O)NC(C)C(=O)N(C)C(CC(C)C)C(=O)N(C)C(CC(C)C)C(=O)N(C)C(C(C)C)C(=O)N1C` (stereo not drawn) [Compound 11, [Methoxy-Sar]^3-N-(trans-4-benzyloxy-but-2-enyl)-Val^5-cyclosporine A], the pEC50 in assay [1] was above 6.00.

On to `CC=CCC(C)C(O)C1C(=O)NC(CC)C(=O)N(C)C(SC)C(=O)N(C)C(CC(C)C)C(=O)N(CC=CCO)C(C(C)C)C(=O)N(C)C(CC(C)C)C(=O)NC(C)C(=O)NC(C)C(=O)N(C)C(CC(C)C)C(=O)N(C)C(CC(C)C)C(=O)N(C)C(C(C)C)C(=O)N1C` (stereo not drawn) [Compound 14, [Methylthio-Sar]^3-N-[trans-4-hydroxy-but-2-enyl]-Val^5-cyclosporine A], for which the pEC50 in assay [1] was above 6.00.

Take `CC=CCC(C)C(O)C1C(=O)NC(CC)C(=O)N(C)C(OC)C(=O)N(C)C(CC(C)C)C(=O)N(CC=CCO)C(C(C)C)C(=O)N(C)C(CC(C)C)C(=O)NC(C)C(=O)NC(C)C(=O)N(C)C(CC(C)C)C(=O)N(C)C(CC(C)C)C(=O)N(C)C(C(C)C)C(=O)N1C` (stereo not drawn) [Compound 15, [Methoxy-Sar]^3-N-[trans-4-hydroxy-but-2-enyl]-Val^5-cyclosporine A]: the pEC50 in assay [1] is above 6.00.

On to `CC=CCC(C)C(O)C1C(=O)NC(CC)C(=O)N(C)C(SC)C(=O)N(C)C(CC(C)C)C(=O)N(CC=CCN(C)C)C(C(C)C)C(=O)N(C)C(CC(C)C)C(=O)NC(C)C(=O)NC(C)C(=O)N(C)C(CC(C)C)C(=O)N(C)C(CC(C)C)C(=O)N(C)C(C(C)C)C(=O)N1C` (stereo not drawn) [Compound 16, [Methylthio-Sar]^3-N-[trans-4-dimethylamino-but-2-enyl]-Val^5-cyclosporine A], for which the pEC50 in assay [1] was above 6.00.

For `CC=CCC(C)C(O)C1C(=O)NC(CC)C(=O)N(C)C(OC)C(=O)N(C)C(CC(C)C)C(=O)N(CC=CCN(C)C)C(C(C)C)C(=O)N(C)C(CC(C)C)C(=O)NC(C)C(=O)NC(C)C(=O)N(C)C(CC(C)C)C(=O)N(C)C(CC(C)C)C(=O)N(C)C(C(C)C)C(=O)N1C` (stereo not drawn) [Compound 17, [Methoxy-Sar]^3-N-[trans-4-dimethylamino-but-2-enyl]-Val^5-cyclosporine A], the pEC50 in assay [1] was above 6.00.
